Data as given in PMC9579956 (RSC Medicinal Chemistry, 2022).

The molecules below were run against Mycobacterium thermoresistible (Mtr) LpqY (Mycolicibacterium thermoresistibile, UniProt G7CES0). Settings: single dose MST screen against LpqY.
Chain of Mycobacterium thermoresistible (Mtr) LpqY (G7CES0 29-471): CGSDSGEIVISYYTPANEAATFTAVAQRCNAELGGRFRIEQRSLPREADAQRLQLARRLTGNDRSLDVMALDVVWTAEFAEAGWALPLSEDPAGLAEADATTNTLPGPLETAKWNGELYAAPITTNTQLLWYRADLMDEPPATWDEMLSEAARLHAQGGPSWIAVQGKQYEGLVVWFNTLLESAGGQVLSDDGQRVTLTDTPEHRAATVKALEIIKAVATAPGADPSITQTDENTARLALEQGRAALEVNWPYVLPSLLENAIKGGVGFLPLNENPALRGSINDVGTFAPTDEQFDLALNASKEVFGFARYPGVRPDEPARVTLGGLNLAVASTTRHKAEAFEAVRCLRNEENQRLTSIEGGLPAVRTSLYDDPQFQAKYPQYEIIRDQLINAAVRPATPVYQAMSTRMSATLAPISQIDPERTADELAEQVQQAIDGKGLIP
Type: binding
With O=[N+]([O-])c1cn2c(n1)OC[C@@H](OCc1ccc(OC(F)(F)F)cc1)C2 [MMV688755] the “Pathogen Box screen signal/noise ratio” value was 0.4. With CC(=O)NC[C@H]1CN(c2ccc(N3CCSCC3)c(F)c2)C(=O)O1 [MMV688756] the “Pathogen Box screen signal/noise ratio” value was 1.1. CS(=O)(=O)c1ccc(C(=O)N(CC2CCCO2)c2nc3ccccc3s2)cc1[N+](=O)[O-] (stereo not shown) [MMV688761] was tested, and the “Pathogen Box screen signal/noise ratio” value was 0.6. With c1ccc(-c2[nH]c3ccccc3c2C(c2ccccn2)N2CCCC2)cc1 (stereo not shown) [MMV688762] the “Pathogen Box screen signal/noise ratio” value was 0.9. In the case of CNc1nnc(Sc2cnn(-c3ccccc3)c(=O)c2Cl)s1 [MMV688763], the “Pathogen Box screen signal/noise ratio” value is reported as 4.7. COc1ccc(-c2onc(C(F)(F)F)c2-c2ccc(Cl)cc2)c(O)c1 [MMV688766] was tested, and the “Pathogen Box screen signal/noise ratio” value was 0.9. With Cc1[nH]c2ccccc2c1C(c1cccs1)N1CCN(C)CC1 (stereo not shown) [MMV688768] the “Pathogen Box screen signal/noise ratio” value was 2.1. For Cc1ccccc1C(=O)N1N=C(Nc2ccccc2)SC1(C)C [MMV688771], the “Pathogen Box screen signal/noise ratio” value was 0.4. In the case of O=C(Cn1ccnc1[N+](=O)[O-])NCc1ccccc1 [MMV688773], the “Pathogen Box screen signal/noise ratio” value is reported as 2.9. For CC[C@@H]([C@H](C)O)n1ncn(-c2ccc(N3CCN(c4ccc(OC[C@@H]5CO[C@@](Cn6cncn6)(c6ccc(F)cc6F)C5)cc4)CC3)cc2)c1=O [MMV688774], the “Pathogen Box screen signal/noise ratio” value was 3.4. CO[C@H]1/C=C/O[C@@]2(C)Oc3c(C)c(O)c4c(O)c(/c(=C/NN5CCN(C)CC5)c(O)c4c3C2=O)=N\C(=O)/C(C)=C\C=C/[C@H](C)[C@H](O)[C@@H](C)[C@@H](O)[C@@H](C)[C@H](OC(C)=O)[C@@H]1C [MMV688775] was tested, and the “Pathogen Box screen signal/noise ratio” value was 1.1. For Cc1nn2c(=O)c3c([nH]c2c1-c1ccc(Cl)cc1)CCCC3 [MMV688776], the “Pathogen Box screen signal/noise ratio” value was 1.5. With Cc1cccnc1NC(=O)c1cccc(OCc2c(C)noc2C)c1 [MMV688793] the “Pathogen Box screen signal/noise ratio” value was 0.4. O=C(NCCc1ccn(-c2ccccc2)n1)C1CCCCC1 [MMV688795] was tested, and the “Pathogen Box screen signal/noise ratio” value was 0.0455. With O=C(NCc1nnc2n1CCCCC2)c1ccc(-c2ccc(F)cc2)o1 [MMV688796] the “Pathogen Box screen signal/noise ratio” value was 0.278. In the case of CC1CCCCN1C(=O)NCCc1coc(-c2ccc(F)cc2)n1 (stereo not shown) [MMV688797], the “Pathogen Box screen signal/noise ratio” value is reported as 1.4. In the case of COc1ccc2nccc(NC(=O)C3CCN(CCc4ccc(Cl)cc4)CC3)c2n1 [MMV688844], the “Pathogen Box screen signal/noise ratio” value is reported as 0.7. In the case of O=C(N[C@H](Cc1ccccc1)C(=O)Nc1ccccc1N1CCOCC1)c1cccs1 [MMV688845], the “Pathogen Box screen signal/noise ratio” value is reported as 1.6. In the case of Cc1ccccc1CN1CCC(O)(c2ccc(Cl)c(C(F)(F)F)c2)CC1 [MMV688846], the “Pathogen Box screen signal/noise ratio” value is reported as 0.25. CC(C)(C)n1nc(Cc2ccc(F)c(Cl)c2)c2c(N)ncnc21 [MMV688852] was tested, and the “Pathogen Box screen signal/noise ratio” value was 0.7. For CCOc1ccc2cc(-c3nn(C(C)(C)C)c(N)c3C(N)=O)cnc2c1 [MMV688853], the “Pathogen Box screen signal/noise ratio” value was 3.8. For CCOc1ccc2cc(-c3nn(CC4CCN(C)CC4)c4ncnc(N)c34)ccc2c1 [MMV688854], the “Pathogen Box screen signal/noise ratio” value was 1.2. For CN1CCN(c2cc(-c3ccc(F)cc3)nc(-c3ccncc3)n2)CC1 [MMV688888], the “Pathogen Box screen signal/noise ratio” value was 2.6. In the case of Clc1ccc(CCNc2cc(-c3ccccc3)nc3ncnn23)cc1 [MMV688889], the “Pathogen Box screen signal/noise ratio” value is reported as 3.0. COc1cc(Br)cc2cc(C(=O)Nc3cccc(C(F)(F)F)c3)c(=O)oc12 [MMV688891] was tested, and the “Pathogen Box screen signal/noise ratio” value was 0.646. For OC[C@H]1O[C@@H](n2c3ccc(Cl)cc3c3c(-c4cc5ccccc5o4)ncnc32)C(O)[C@H]1O (stereo partly shown) [MMV688921], the “Pathogen Box screen signal/noise ratio” value was 1.1. With CCc1nn(C)c(C(=O)NCc2ccc(Oc3ccc(C)cc3)cc2)c1Cl [MMV688934] the “Pathogen Box screen signal/noise ratio” value was 1.5. O=C(c1ccco1)N(CCCn1ccnc1)c1nc2c(Cl)cccc2s1 [MMV688936] was tested, and the “Pathogen Box screen signal/noise ratio” value was 1.4. CCOc1ccc(-c2nc(CNCCc3ccc(F)cc3)cs2)cc1 [MMV688938] was tested, and the “Pathogen Box screen signal/noise ratio” value was -0.25. In the case of Cc1ccc2nc(C)c(-c3ccn(Cc4ccccc4)n3)n2c1 [MMV688939], the “Pathogen Box screen signal/noise ratio” value is reported as -0.2. In the case of COc1cc(CN2CCC3(C=Cc4ccccc43)CC2)cc2c1OCO2 [MMV688941], the “Pathogen Box screen signal/noise ratio” value is reported as 0.5. In the case of CC(C)(C)C(O)C(Oc1ccc(-c2ccccc2)cc1)n1cncn1 (stereo not shown) [MMV688942], the “Pathogen Box screen signal/noise ratio” value is reported as 0.451. CC1COC(Cn2cncn2)(c2ccc(Oc3ccc(Cl)cc3)cc2Cl)O1 (stereo not shown) [MMV688943] was tested, and the “Pathogen Box screen signal/noise ratio” value was 0.75. In the case of Cc1cc(NC(=O)c2ccc(Oc3ccc(Cl)cc3O)o2)no1 [MMV688955], the “Pathogen Box screen signal/noise ratio” value is reported as 0.4. In the case of CC(=O)OC[C@H]1O[C@@H]([S-])[C@H](OC(C)=O)[C@@H](OC(C)=O)[C@@H]1OC(C)=O.CC[PH+](CC)CC.[Au] [MMV688978], the “Pathogen Box screen signal/noise ratio” value is reported as 0.85. CCc1cc(=O)n(C)c(SC(C)C(=O)Nc2ccc(F)cc2)n1 (stereo not shown) [MMV688980] was tested, and the “Pathogen Box screen signal/noise ratio” value was 1.3. In the case of CCCCCCCCCCCCCCCCOP(=O)([O-])OCC[N+](C)(C)C [MMV688990], the “Pathogen Box screen signal/noise ratio” value is reported as 0.7. CNC1C(OC2C(OC3C(O)C(O)C(NC(=N)N)C(O)C3NC(=N)N)OC(C)C2(O)C=O)OC(CO)C(O)C1O (stereo not shown) [MMV688994] was tested, and the “Pathogen Box screen signal/noise ratio” value was 0.56. With C[C@@H]1[C@H](O)[C@@H](C)/C=C/C=C/C=C/C=C/C=C/C=C/C=C/[C@H](O[C@@H]2O[C@H](C)[C@@H](O)[C@H](N)[C@@H]2O)C[C@@H]2O[C@](O)(C[C@@H](O)C[C@@H](O)[C@H](O)CC[C@@H](O)C[C@@H](O)CC(=O)O[C@H]1C)C[C@H](O)[C@H]2C(=O)O [MMV689000] the “Pathogen Box screen signal/noise ratio” value was 1.1. In the case of Cc1ccc(S(=O)(=O)Nc2ccc(CN3CCN(C(=O)c4cccc(C#N)c4)CC3)cc2)cc1 [MMV689028], the “Pathogen Box screen signal/noise ratio” value is reported as -0.5. COc1ccc(S(=O)(=O)Nc2ccc(CN3CCN(C(=O)c4cccc(C#N)c4)CC3)cc2)cc1 [MMV689029] was tested, and the “Pathogen Box screen signal/noise ratio” value was 0.156. With Clc1ccc(CN2CCN(C3=NCCN3)CC2)cc1Cl [MMV689060] the “Pathogen Box screen signal/noise ratio” value was 0.464. With CC(=O)Nc1ccc(-c2noc(CC3CCCN(Cc4cccc(F)c4C)C3)n2)cc1 (stereo not shown) [MMV689061] the “Pathogen Box screen signal/noise ratio” value was 0.9. In the case of FC(F)(F)c1ccc(N(c2cccnc2)C2CCN(c3ccc(C(F)(F)F)cn3)CC2)cc1 [MMV689243], the “Pathogen Box screen signal/noise ratio” value is reported as 1.4. For O=C([C@@H](c1ccc(Cl)cc1)c1cccnc1)N1CCN(c2ccc(C(F)(F)F)cc2)CC1 [MMV689244], the “Pathogen Box screen signal/noise ratio” value was 1.8. In the case of Nc1ncnc2c1ncn2C[C@@H](O)[C@@H](O)C(=O)O [MMV689255], the “Pathogen Box screen signal/noise ratio” value is reported as 2.5. In the case of CC(c1cc(Cl)cc(Cl)c1)N(C)c1ncc2c(N)nc(N)nc2n1 (stereo not shown) [MMV689437], the “Pathogen Box screen signal/noise ratio” value is reported as 0.187. In the case of CC(C)(C)C1CCC(CC2=C(O)C(=O)c3ccccc3C2=O)CC1 (stereo not shown) [MMV689480], the “Pathogen Box screen signal/noise ratio” value is reported as 2.3. In the case of CNc1cc(C)nc(C2CN(C(=O)c3n[nH]c4ccccc34)CCO2)c1 (stereo not shown) [MMV689709], the “Pathogen Box screen signal/noise ratio” value is reported as 2.1. For COc1nc2ccc(Br)cc2cc1[C@@H](c1ccccc1)[C@@](O)(CCN(C)C)c1cccc2ccccc12 [MMV689758], the “Pathogen Box screen signal/noise ratio” value was 0.444. With COc1ccc(C2=NN(C3CCCCCC3)C(=O)[C@@H]3CC=CC[C@H]23)cc1OCCCCOc1ccc(-c2nn[nH]n2)cc1 [MMV690027] the “Pathogen Box screen signal/noise ratio” value was 0.9. With COc1ccc(C2=NN(C3CCCCCC3)C(=O)C2(C)C)cc1OCCCCOc1ccc(-c2nn[nH]n2)cc1 [MMV690028] the “Pathogen Box screen signal/noise ratio” value was 2.5.
